From patent US8604217B2, “Compound, a process for its preparation, a pharmaceutical composition, use of a compound, a method for modulating or regulating serine/threonine kinases and a serine/threonine kinases modulating agent” (Selvita S.A., priority 2009, dated 2013)

How the values were obtained:
Experiment in all cases: KinaseProfiler kinase panel
Format in all cases: biochemical
Fes(h) = Fes(h) (Homo sapiens (Human), UniProt P07332)
Haspin(h) = Haspin(h) (Homo sapiens (Human), UniProt Q8TF76)
DYRK2(h) = DYRK2(h) (Homo sapiens (Human), UniProt Q92630)
MAPKAP-K2(h) = MAPKAP-K2(h) (Homo sapiens (Human), UniProt P49137)
c-RAF(h) = c-RAF(h) (Homo sapiens (Human), UniProt P04049, Y340D/Y341D)
BrSK1(h) = BrSK1(h) (Homo sapiens (Human), UniProt Q8TDC3)
Rsk1(r) = Rsk1(r) (Rattus norvegicus (Rat), UniProt Q63531)
TAO1(h) = TAO1(h) (Homo sapiens (Human), UniProt Q7L7X3)
HIPK2(h) = HIPK2(h) (Homo sapiens (Human), UniProt Q9H2X6)
MST2(h) = MST2(h) (Homo sapiens (Human), UniProt Q13188)
EphA3(h) = EphA3(h) (Homo sapiens (Human), UniProt P29320)
LKB1(h) = LKB1(h) (Homo sapiens (Human), UniProt Q15831)
MSK2(h) = MSK2(h) (Homo sapiens (Human), UniProt O75676)
Abl(Y253F)(h) = Abl(Y253F)(h) (Homo sapiens (Human), UniProt P00519, Y253F)
Src(T341M)(h) = Src(T341M)(h) (Homo sapiens (Human), UniProt P12931, T341M)
CK1δ(h) = CK1δ(h) (Homo sapiens (Human), UniProt P48730)
MSSK1(h) = MSSK1(h) (Homo sapiens (Human), UniProt Q9UPE1)
JAK2(h) = JAK2(h) (Homo sapiens (Human), UniProt O60674)
PDGFRα(D842V)(h) = PDGFRα(D842V)(h) (Homo sapiens (Human), UniProt P16234, D842V)
PKCζ(h) = PKCζ(h) (Homo sapiens (Human), UniProt Q05513)
CDK5/p25(h) = CDK5/p25(h) (Homo sapiens (Human), UniProt Q00535)
JAK3(h) = JAK3(h) (Homo sapiens (Human), UniProt P52333)
Src(1-530)(h) = Src(1-530)(h) (Homo sapiens (Human), UniProt P12931)
CaMKI(h) = CaMKI(h) (Homo sapiens (Human), UniProt Q14012)
MLK1(h) = MLK1(h) (Homo sapiens (Human), UniProt P80192)
CaMKIδ(h) = CaMKIδ(h) (Homo sapiens (Human), UniProt Q8IU85)
Flt1(h) = Flt1(h) (Homo sapiens (Human), UniProt P17948)
NEK6(h) = NEK6(h) (Homo sapiens (Human), UniProt Q9HC98)
TRKB(h) = TRKB(h) (Homo sapiens (Human), UniProt Q16620)
WNK3(h) = WNK3(h) (Homo sapiens (Human), UniProt Q9BYP7)
LOK(h) = LOK(h) (Homo sapiens (Human), UniProt O94804)
IRR(h) = IRR(h) (Homo sapiens (Human), UniProt P14616)
Fyn(h) = Fyn(h) (Homo sapiens (Human), UniProt P06241)
EphA8(h) = EphA8(h) (Homo sapiens (Human), UniProt P29322)
MEK1(h) = MEK1(h) (Homo sapiens (Human), UniProt Q02750)
PDGFRα(V561D)(h) = PDGFRα(V561D)(h) (Homo sapiens (Human), UniProt P16234, V561D)
TRKA(h) = TRKA(h) (Homo sapiens (Human), UniProt P04629)
TGFBR1(h) = TGFBR1(h) (Homo sapiens (Human), UniProt P36897)
ZIPK(h) = ZIPK(h) (Homo sapiens (Human), UniProt O43293)
IR(h) = IR(h) (Homo sapiens (Human), UniProt P06213)

Sequence of MEK1(h) (Q02750 whole entry): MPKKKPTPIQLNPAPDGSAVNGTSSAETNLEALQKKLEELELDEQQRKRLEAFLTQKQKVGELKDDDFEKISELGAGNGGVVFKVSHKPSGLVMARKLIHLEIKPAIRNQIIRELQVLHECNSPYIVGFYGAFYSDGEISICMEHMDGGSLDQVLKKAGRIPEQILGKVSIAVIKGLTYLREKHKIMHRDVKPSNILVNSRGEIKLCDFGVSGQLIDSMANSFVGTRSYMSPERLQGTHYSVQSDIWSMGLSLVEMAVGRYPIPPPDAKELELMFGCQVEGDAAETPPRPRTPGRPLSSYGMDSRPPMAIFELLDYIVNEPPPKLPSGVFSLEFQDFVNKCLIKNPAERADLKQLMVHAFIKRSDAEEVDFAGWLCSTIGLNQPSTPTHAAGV
Sequence of Haspin(h) (Q8TF76 whole entry): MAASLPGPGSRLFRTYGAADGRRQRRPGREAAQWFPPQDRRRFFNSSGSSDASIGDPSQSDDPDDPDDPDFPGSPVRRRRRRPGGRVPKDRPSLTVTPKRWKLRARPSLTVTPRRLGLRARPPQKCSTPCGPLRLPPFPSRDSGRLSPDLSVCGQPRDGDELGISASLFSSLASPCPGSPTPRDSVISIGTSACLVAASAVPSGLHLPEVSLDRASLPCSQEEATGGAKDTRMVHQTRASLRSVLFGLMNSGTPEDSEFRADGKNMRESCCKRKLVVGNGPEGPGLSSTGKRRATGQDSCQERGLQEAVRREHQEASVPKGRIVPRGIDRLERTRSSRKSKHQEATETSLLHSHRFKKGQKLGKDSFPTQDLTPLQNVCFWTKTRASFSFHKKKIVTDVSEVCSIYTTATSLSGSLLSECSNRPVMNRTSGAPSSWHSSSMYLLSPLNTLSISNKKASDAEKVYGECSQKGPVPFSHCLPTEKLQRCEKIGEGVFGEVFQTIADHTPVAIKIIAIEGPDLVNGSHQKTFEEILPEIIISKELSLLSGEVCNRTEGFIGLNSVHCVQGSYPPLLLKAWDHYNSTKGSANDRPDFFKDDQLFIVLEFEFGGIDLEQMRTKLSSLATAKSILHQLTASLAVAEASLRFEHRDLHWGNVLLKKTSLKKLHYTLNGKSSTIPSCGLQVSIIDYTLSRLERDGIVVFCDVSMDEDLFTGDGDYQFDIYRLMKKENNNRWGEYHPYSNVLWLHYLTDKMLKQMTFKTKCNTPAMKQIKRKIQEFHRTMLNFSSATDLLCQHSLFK
Sequence of PKCζ(h) (Q05513 whole entry): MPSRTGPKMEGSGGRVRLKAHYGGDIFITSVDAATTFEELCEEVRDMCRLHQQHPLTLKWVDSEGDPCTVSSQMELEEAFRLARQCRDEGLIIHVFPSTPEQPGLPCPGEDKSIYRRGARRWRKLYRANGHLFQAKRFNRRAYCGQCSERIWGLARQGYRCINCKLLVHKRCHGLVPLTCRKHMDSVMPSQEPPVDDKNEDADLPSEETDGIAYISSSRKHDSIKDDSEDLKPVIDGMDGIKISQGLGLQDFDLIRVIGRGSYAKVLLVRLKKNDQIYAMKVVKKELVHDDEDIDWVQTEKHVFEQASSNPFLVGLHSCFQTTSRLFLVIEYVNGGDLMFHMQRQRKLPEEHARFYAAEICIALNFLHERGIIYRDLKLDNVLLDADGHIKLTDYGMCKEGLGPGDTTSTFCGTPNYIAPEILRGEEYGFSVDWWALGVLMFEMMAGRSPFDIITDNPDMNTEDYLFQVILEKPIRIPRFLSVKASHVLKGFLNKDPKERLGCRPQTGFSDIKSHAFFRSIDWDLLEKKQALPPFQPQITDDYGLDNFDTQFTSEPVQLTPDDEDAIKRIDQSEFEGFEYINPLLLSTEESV
Sequence of CaMKIδ(h) (Q8IU85 whole entry): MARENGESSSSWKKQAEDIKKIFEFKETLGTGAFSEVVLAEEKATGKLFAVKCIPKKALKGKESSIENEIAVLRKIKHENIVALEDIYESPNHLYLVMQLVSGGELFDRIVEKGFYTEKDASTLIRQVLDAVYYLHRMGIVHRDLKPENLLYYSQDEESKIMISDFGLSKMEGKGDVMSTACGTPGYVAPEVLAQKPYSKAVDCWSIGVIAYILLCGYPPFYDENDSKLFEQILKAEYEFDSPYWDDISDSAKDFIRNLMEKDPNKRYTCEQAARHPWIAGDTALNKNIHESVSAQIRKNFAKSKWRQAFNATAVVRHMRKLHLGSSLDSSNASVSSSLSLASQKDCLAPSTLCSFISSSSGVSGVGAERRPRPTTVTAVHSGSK
Sequence of TGFBR1(h) (P36897 34-503): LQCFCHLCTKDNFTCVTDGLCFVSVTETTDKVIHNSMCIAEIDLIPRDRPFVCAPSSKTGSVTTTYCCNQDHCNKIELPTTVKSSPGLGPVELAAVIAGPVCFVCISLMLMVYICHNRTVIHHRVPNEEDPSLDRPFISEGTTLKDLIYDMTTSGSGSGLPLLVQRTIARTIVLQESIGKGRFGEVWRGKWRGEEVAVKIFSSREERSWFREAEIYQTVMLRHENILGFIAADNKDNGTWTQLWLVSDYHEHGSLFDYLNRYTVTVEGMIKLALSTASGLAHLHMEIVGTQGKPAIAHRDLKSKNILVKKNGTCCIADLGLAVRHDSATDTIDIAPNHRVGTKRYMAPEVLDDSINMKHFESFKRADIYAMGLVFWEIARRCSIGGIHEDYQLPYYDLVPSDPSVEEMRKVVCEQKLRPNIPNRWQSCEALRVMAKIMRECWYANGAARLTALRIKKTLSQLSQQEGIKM
Sequence of WNK3(h) (Q9BYP7 whole entry): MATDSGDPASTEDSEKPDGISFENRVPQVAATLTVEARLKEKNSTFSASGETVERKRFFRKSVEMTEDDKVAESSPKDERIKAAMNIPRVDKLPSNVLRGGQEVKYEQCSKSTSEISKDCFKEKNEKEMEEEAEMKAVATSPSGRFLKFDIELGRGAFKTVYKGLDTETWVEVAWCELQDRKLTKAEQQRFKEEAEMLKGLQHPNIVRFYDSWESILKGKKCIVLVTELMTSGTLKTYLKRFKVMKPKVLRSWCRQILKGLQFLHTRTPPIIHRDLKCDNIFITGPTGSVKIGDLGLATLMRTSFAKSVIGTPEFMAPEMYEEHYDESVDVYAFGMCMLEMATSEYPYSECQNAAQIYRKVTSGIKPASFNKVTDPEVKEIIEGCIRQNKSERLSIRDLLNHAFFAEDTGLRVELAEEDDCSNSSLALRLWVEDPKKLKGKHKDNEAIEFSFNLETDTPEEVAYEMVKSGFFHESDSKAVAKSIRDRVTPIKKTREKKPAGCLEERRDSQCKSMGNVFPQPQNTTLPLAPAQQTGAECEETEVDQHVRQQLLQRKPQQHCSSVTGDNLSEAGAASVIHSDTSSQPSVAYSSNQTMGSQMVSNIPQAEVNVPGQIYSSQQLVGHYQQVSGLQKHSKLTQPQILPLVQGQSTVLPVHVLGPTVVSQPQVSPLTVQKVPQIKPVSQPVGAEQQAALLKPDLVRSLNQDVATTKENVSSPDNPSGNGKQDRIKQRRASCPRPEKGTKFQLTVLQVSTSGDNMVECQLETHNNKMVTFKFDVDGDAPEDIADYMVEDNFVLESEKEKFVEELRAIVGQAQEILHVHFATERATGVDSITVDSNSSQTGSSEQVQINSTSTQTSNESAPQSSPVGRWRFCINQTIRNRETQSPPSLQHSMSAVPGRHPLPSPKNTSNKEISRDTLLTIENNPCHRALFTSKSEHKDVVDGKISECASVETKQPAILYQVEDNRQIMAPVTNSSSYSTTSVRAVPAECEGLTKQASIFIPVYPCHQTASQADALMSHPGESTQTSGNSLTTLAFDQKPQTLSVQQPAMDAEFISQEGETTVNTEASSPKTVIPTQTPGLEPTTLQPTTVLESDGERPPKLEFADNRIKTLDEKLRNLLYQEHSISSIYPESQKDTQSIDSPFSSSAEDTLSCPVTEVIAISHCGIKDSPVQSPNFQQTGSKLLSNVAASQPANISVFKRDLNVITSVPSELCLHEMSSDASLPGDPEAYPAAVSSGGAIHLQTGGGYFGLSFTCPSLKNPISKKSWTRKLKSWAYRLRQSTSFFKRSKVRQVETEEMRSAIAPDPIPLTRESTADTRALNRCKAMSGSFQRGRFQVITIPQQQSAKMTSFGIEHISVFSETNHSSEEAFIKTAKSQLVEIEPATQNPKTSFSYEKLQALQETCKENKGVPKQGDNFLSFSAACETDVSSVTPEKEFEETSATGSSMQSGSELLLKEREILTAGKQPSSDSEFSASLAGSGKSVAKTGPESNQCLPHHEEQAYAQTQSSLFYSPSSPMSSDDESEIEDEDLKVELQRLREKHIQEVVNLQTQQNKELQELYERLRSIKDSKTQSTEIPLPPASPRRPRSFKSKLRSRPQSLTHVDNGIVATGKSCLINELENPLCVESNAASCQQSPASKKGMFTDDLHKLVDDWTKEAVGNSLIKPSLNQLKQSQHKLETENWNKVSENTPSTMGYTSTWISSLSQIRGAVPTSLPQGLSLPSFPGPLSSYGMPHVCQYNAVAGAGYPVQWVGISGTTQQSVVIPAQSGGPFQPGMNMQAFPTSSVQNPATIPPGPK
Sequence of CK1δ(h) (P48730 whole entry): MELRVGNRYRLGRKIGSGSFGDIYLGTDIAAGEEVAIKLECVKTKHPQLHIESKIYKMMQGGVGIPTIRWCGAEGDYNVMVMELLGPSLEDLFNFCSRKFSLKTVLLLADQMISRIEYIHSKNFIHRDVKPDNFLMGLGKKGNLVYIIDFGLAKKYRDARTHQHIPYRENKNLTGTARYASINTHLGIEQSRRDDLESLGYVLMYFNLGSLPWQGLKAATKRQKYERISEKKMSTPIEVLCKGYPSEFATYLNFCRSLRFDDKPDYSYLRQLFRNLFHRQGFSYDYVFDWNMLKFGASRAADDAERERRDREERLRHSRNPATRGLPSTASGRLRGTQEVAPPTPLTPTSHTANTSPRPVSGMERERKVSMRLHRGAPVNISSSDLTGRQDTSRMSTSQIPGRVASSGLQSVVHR

remaining activity at 1 µM (Fes(h)): 52%
remaining activity at 1 µM (Haspin(h)): 2%
remaining activity at 1 µM (DYRK2(h)): 45%
remaining activity at 1 µM (MAPKAP-K2(h)): 101%
remaining activity at 1 µM (c-RAF(h)): 85%
remaining activity at 1 µM (BrSK1(h)): 103%
remaining activity at 1 µM (Rsk1(r)): 79%
remaining activity at 1 µM (TAO1(h)): 6%
remaining activity at 1 µM (HIPK2(h)): 1%
remaining activity at 1 µM (MST2(h)): 93%
remaining activity at 1 µM (EphA3(h)): 94%
remaining activity at 1 µM (LKB1(h)): 86%
remaining activity at 1 µM (MSK2(h)): 16%
remaining activity at 1 µM (Abl(Y253F)(h)): 92%
remaining activity at 1 µM (Src(T341M)(h)): 40%
remaining activity at 1 µM (CK1δ(h)): 62%
remaining activity at 1 µM (MSSK1(h)): 87%
remaining activity at 1 µM (JAK2(h)): 121%
remaining activity at 1 µM (PDGFRα(D842V)(h)): 17%
remaining activity at 1 µM (PKCζ(h)): 107%
remaining activity at 1 µM (CDK5/p25(h)): 1%
remaining activity at 1 µM (JAK3(h)): 74%
remaining activity at 1 µM (Src(1-530)(h)): 65%
remaining activity at 1 µM (CaMKI(h)): 89%
remaining activity at 1 µM (MLK1(h)): 87%
remaining activity at 1 µM (CaMKIδ(h)): 94%
remaining activity at 1 µM (Flt1(h)): 40%
remaining activity at 1 µM (NEK6(h)): 97%
remaining activity at 1 µM (TRKB(h)): 37%
remaining activity at 1 µM (WNK3(h)): 94%
remaining activity at 1 µM (LOK(h)): 50%
remaining activity at 1 µM (IRR(h)): 91%
remaining activity at 1 µM (Fyn(h)): 73%
remaining activity at 1 µM (EphA8(h)): 102%
remaining activity at 1 µM (MEK1(h)): 73%
remaining activity at 1 µM (PDGFRα(V561D)(h)): 68%
remaining activity at 1 µM (TRKA(h)): 35%
remaining activity at 1 µM (TGFBR1(h)): 87%
remaining activity at 1 µM (ZIPK(h)): 95%
remaining activity at 1 µM (IR(h)): 104%
SMILES: CCn1c(N2CCNCC2)nc2c(Br)c(Br)c(Br)c(Br)c21 [Compound 416, 4,5,6,7-tetrabromo-1-ethyl-2-(piperazin-1-yl)-1H-benzo[d]imidazole]
